Structures are written as SMILES.

Test [1] has as its system β-glucosidase. Kind of test: Stabilization of β-glucosidase by moranoline and N-methylmoranoline. In kind it is biochemical. The conditions noted are these: 6 mg/ml of the hydrochloride, kept at 60° C. How it is done: Test samples were (1) 1 ml of 0.2M buffer solution of β-glucosidase (300 μg/ml) alone, (2) 1 ml of 0.2M buffer solution of β-glucosidase (300 μg/ml) supplemented with 6 mg/ml of moranoline hydrochloride and, (3) 1 ml of 0.2M buffer solution of β-glucosidase (300 μg/ml) supplemented with 6 mg/ml of N-methylmoranoline hydrochloride. These test samples were kept at 60° C. and the residual enzyme activity was measured with passage of time.
For determination of the enzyme activity, there was used a method measuring absorbancy at 400 nm using […] as a substrate.
That is, 200 μl of 0.014M p-nitrophenyl-β-D-glucoside, 200 μl of the enzyme solution taken from each sample for sampling with passage of time which was appropriately diluted, and 600 μl of 0.2M acetate buffer solution (pH 4.5) were reacted at 30° C. for 15 minutes. After 2 ml of 0.1M disodium carbonate was added thereto to terminate the reaction, a color was formed and the color was measured at 400 nm. When absorbancy at the initiation of the reaction was made 100, relative absorbancy in each time was defined to be residual activity.

Test [2] has as its target β-amylase (Glycine max, UniProt P10538). Kind of test: Stabilization of β-amylase by moranoline. In kind it is biochemical, soybean. The conditions noted are these: 6000 μg/ml, incubated at 65° C., pH 4.8. On the procedure: For control, a sample added with no moranoline was used.
The activity of β-amylase was determined by the 3,5-dinitrosalicylic acid method of Example 37.

β-amylase, sequence (P10538 whole entry): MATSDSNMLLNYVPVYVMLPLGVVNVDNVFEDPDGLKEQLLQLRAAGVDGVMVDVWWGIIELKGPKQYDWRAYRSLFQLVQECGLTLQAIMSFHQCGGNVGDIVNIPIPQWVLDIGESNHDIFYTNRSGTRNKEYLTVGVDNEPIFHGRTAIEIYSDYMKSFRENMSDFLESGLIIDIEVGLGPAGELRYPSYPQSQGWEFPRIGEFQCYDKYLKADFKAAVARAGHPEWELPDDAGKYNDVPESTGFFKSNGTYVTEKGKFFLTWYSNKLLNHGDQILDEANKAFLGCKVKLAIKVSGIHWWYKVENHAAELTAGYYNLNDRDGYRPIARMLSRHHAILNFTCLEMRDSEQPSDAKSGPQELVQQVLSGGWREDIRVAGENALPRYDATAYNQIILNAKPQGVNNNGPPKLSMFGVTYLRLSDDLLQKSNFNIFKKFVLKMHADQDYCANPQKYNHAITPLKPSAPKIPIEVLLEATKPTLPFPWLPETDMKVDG

In the case of `OC[C@H]1NC[C@H](O)[C@@H](O)[C@@H]1O` [moranoline], the “stabilizing effect (residual activity, FIG. 4)” value in test [1] was “stabilizing effect”. For the same compound, in test [2], the “stabilizing action (residual activity, FIG. 6)” value is on record as “stabilizing action”.

These data come from patent US5256788A, “Moranoline derivatives and their production and the use of moranoline and its derivatives as a stabilizing agent for enzymes” (Nippon Shinyaku Co. Ltd., priority 1989, dated 1993).
